Assay: Toxicity evaluation, plasma AST and ALT after subcutaneous injection
Type: in vivo, C57BL/6 mouse
Conditions: 25 μg resiquimod, over time, FIG. 6
Procedure: To evaluate the toxicity of a live pathogen-mimetic nano-molecule, a live pathogen-mimetic nano-molecule, a CWS-nanodispersion, resiquimod (R848; free drug), or a mixture of a CWS-nanodispersion and resiquimod (R848; free drug), which was added to a 50 μL of phosphate buffered saline (PBS) to have a resiquimod concentration of 25 μg, was subcutaneously injected into the right flank of a C57BL/6 mouse. Then, blood was extracted from the mouse at fixed time intervals and centrifuged at 12,000 rpm to isolate plasma. Then, the concentrations of aspartate transaminase (AST) and alanine transaminase (ALT) contained in the isolated plasma were measured using ELISA.

CCOCc1nc2c(N)nc3ccccc3c2n1CC(C)(C)O [resiquimod]
plasma ALT concentration (hepatotoxicity indicator): initially increased
plasma AST concentration (hepatotoxicity indicator): initially increased

— patent publication US20230100429A1, “LIVE-PATHOGEN-MIMETIC NANOPARTICLES BASED ON PATHOGEN CELL WALL SKELETON, AND PRODUCTION METHOD THEREOF” (priority 2020, published 2023)
